Patent US20100022798A1, “Ibuprofen amine salts and synthesis thereof” (NATIONAL CENTRAL UNIVERSITY, priority 2008, published 2010)

Experiment: pH stability of the ibuprofen amine salt
Assay type: physicochemical
Conditions: pH range in which the salt is stable, after tested

CC(C)Cc1ccc(C(C)C(=O)O)cc1.NC(CO)(CO)CO (stereo not shown) [ibuprofen amine salt]
stability: stable between pH 4 and 9
